Source: patent US9440982B2 (Eolas Therapeutics, Inc., priority 2012, dated 2016)

How the values were obtained:
[1] = target: T1, cytochrome P450 3A4 isoform (Homo sapiens, UniProt P08684); assay: Cytochrome P450 inhibition assay (midazolam hydroxylation); assay type: in vitro ADME; settings: 10 μM test compound, midazolam at approximately its Km, human liver microsomes
T1 construct: pre-incubated with human liver microsomes and NADPH; from tissue; host or cells: human liver microsomes
In short: (§1)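 Percent inhibition of midazolam 1′-hydroxylation by 10 μM compound was measured, midazolam dosed at about Km. Time-dependent inhibition was probed by a 30 min preincubation of compound with human liver microsomes and NADPH ahead of substrate, compared against samples without preincubation.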

[2] = target: T2, OX1 (Homo sapiens, UniProt O43613); assay: Orexin receptor cell-based functional assay, [Ca2+]i by FLIPR, CHO-OX1 cells; settings: CHO-OX1 cells, [Ca2+]i by FLIPR, antagonist dose-range 0.1 nM-10 μM, EC90 of OXA; read-out: OX1
T2 construct: expressed in transfected cells; host or cells: CHO (CHO-OX1, kept under selection antibiotic)
T2 sequence (O43613 1-425): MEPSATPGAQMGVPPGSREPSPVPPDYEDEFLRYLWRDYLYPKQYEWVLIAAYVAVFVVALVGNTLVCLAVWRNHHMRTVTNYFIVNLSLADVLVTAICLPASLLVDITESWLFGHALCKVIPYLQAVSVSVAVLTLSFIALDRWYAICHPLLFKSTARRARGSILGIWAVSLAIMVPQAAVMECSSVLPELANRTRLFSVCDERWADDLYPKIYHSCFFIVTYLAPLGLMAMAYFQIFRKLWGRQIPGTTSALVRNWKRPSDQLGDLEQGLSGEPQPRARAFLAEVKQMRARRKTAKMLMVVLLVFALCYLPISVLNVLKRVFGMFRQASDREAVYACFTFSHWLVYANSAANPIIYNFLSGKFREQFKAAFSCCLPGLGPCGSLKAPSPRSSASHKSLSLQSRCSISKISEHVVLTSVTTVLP
In short: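 Antagonist mode FLIPR calcium read in CHO-OX1 and CHO-OX2 lines. Test compounds, dosed 0.1 nM-10 μM, preincubated 30 min after 37° C dye loading with 2.5 mM probenecid (calcium4 for 30 min or calcium6 for 2 h).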

[3] = target: T3, OX2 (Homo sapiens, UniProt O43614); assay: Orexin receptor cell-based functional assay, [Ca2+]i by FLIPR, CHO-OX2 cells; settings: [Ca2+]i by FLIPR, antagonist dose-range 0.1 nM-10 μM, EC90 of OXA, read-out: OX2
T3 construct: expressed in transfected cells; host or cells: CHO (CHO-OX2, kept under selection antibiotic)
T3 sequence (O43614 1-444): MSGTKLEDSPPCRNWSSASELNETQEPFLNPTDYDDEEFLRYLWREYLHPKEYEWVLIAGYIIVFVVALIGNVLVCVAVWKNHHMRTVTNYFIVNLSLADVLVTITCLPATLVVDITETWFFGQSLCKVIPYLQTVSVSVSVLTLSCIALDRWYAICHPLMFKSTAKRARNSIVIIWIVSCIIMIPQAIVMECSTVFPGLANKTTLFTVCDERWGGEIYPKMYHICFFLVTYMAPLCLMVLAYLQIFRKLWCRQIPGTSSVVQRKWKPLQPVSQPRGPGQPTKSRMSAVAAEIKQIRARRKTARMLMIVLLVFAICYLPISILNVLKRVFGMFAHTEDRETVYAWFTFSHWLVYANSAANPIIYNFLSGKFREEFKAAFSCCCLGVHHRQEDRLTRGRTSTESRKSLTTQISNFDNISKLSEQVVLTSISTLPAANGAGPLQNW
Method: Measurement of [Ca^2+]i using a FLIPR: CHO—OX1 or CHO—OX2 cells are seeded into black-walled clear-base 384-well plates (Costar) at a density of 20,000 cells per well in F12-K medium supplemented with 10% FBS and selection antibiotic (500 ug/ml G418 or 15 ug/ml Blasticidin) and cultured overnight. The cells are incubated with equal volume of calcium4 loading buffer (Molecular Devices, Inc.) containing 2.5 mM probenecid at 37° C. for 30 min, followed by putative OX1 or OX2 receptor antagonists (dose-range 0.1 nM-10 μM) for another 30 min.
The cells are incubated with equal volume of calcium6 loading buffer (Molecular Devices, Inc.) containing 2.5 mM probenecid at 37° C. for 2 h, followed by test compounds (dose-range 0.1 nM-10 μM) for another 30 min.

[4] = target: T4, CYP3A4 (Homo sapiens, UniProt P08684); assay: Cytochrome P450 inhibition assay (midazolam hydroxylation); assay type: in vitro ADME; settings: human, human liver microsomes, probe midazolam (hydroxylation to 1′-hydroxymidazolam), 10 μM test compound, midazolam at approximately its Km
T4 construct: pre-incubated with human liver microsomes and NADPH; from tissue; host or cells: human liver microsomes
In short: as §1

T4 sequence (P08684 whole entry): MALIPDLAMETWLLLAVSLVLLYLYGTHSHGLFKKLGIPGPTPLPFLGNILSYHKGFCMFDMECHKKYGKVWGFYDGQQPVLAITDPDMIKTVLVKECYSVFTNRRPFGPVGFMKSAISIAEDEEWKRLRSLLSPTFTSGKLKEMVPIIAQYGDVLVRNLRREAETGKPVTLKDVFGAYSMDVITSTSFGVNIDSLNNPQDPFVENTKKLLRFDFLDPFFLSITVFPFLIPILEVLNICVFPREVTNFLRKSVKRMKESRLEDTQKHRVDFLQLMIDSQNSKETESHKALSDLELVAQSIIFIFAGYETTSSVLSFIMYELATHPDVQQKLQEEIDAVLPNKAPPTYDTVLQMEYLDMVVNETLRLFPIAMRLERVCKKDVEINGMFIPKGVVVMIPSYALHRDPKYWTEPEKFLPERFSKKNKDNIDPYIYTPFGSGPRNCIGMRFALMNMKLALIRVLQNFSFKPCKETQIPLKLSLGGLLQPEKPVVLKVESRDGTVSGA
T1 sequence (P08684 whole entry, canonical isoform): as the sequence (P08684 whole entry) above

SMILES	% CYP3A4 Inhibition ([1]; 10 µM) [%]	IC50 [2] [nM]	% CYP3A4 Inhibition [1] [%]	IC50 [3] [nM]	inhibition at 10 µM [4] [%]
Cc1nc(C(=O)N2CCC[C@@H](C)[C@H]2CNc2nc3cc(Cl)ccc3o2)c(-c2ccc(F)cc2)s1 [Example A13, ((2S,3R)-2-(((5-Chlorobenzo[d]oxazol-2-yl)amino)methyl)-3-methylpiperidin-1-yl)(5-(4-fluorophenyl)-2-methylthiazol-4-yl)methanone]	83	–	–	–	–
Cc1ccc(-c2cnn(C)c2)c(C(=O)N2CCC[C@@H](C)[C@H]2CNc2nc3cc(Cl)ccc3o2)c1 [Example A40, ((2S,3R)-2-(((5-Chlorobenzo[d]oxazol-2-yl)amino)methyl)-3-methylpiperidin-1-yl)(5-methyl-2-(1-methyl-1H-pyrazol-4-yl)phenyl)methanone]	96	20	–	–	–
Cc1ccc(-n2nccn2)c(C(=O)N2CCC[C@@H](C)[C@H]2CNc2ccc(C#N)cn2)c1 [Example A46, 6-((((2S,3R)-3-Methyl-1-(5-methyl-2-(2H-1,2,3-triazol-2-yl)benzoyl)piperidin-2-yl)methyl)amino)nicotinonitrile]	53	5	–	–	–
Cc1nc(C(=O)N2CCC[C@@H](C)[C@H]2CNc2nc3cc(Cl)ccc3o2)c(-c2ccc(F)cc2)s1 [Example A84, ((2S,3R)-2-(((5-Chlorobenzo[d]oxazol-2-yl)amino)methyl)-3-methylpiperidin-1-yl)(5-(4-fluorophenyl)-2-methylthiazol-4-yl)methanone]	50	–	–	–	–
Cc1ccc(-n2nccn2)c(C(=O)N2CCC[C@@H](C)[C@H]2CNc2ncc(F)cc2F)c1 [Example A91, ((2S,3R)-2-(((3,5-Difluoropyridin-2-yl)amino)methyl)-3-methylpiperidin-1-yl)(5-methyl-2-(2H-1,2,3-triazol-2-yl)phenyl)methanone]	58	–	–	–	–
Cc1ccc(-n2nccn2)c(C(=O)N2CCC[C@@H](C)[C@H]2CNc2ncc(Cl)cc2F)c1 [Example A92, ((2S,3R)-2-(((5-Chloro-3-fluoropyridin-2-yl)amino)methyl)-3-methylpiperidin-1-yl)(5-methyl-2-(2H-1,2,3-triazol-2-yl)phenyl)methanone]	91	–	–	–	–
C[C@@H]1CCCN(C(=O)c2cccc(F)c2-c2ncccn2)[C@@H]1CNc1ncc(C(F)(F)F)cn1 [Example A230, (3-Fluoro-2-(pyrimidin-2-yl)phenyl)((2S,3R)-3-methyl-2-(((5-(trifluoromethyl)pyrimidin-2-yl)amino)methyl)piperidin-1-yl)methanone]	–	5	50	–	–
Cc1c(F)ccc(C(=O)N2CCC[C@@H](C)[C@H]2CNc2ncc(C(F)(F)F)cn2)c1-c1ncccn1 [Example A347, (4-fluoro-3-methyl-2-(pyrimidin-2-yl)phenyl)((2S,3R)-3-methyl-2-(((5-(trifluoromethyl)pyrimidin-2-yl)amino)methyl)piperidin-1-yl)methanone]	–	2	–	> 5000	35

Next, values leading:

% CYP3A4 Inhibition ([1]; 10 µM) [%]	IC50 [2] [nM]	% CYP3A4 Inhibition [1] [%]	IC50 [3] [nM]	inhibition at 10 µM [4] [%]	SMILES
–	2	–	> 4000	77	Cc1cc(F)cc(C(=O)N2CCC[C@@H](C)[C@H]2CNc2ccc(C(F)(F)F)cn2)c1-n1nccn1 [Example A348, (5-fluoro-3-methyl-2-(2H-1,2,3-triazol-2-yl)phenyl)((2S,3R)-3-methyl-2-(((5-(trifluoromethyl)pyridin-2-yl)amino)methyl)piperidin-1-yl)methanone]
–	2	–	> 1000	59	Cc1cc(F)cc(C(=O)N2CCC[C@@H](C)[C@H]2CNc2ncc(C(F)(F)F)cn2)c1-n1nccn1 [Example A349, (5-fluoro-3-methyl-2-(2H-1,2,3-triazol-2-yl)phenyl)((2S,3R)-3-methyl-2-(((5-(trifluoromethyl)pyrimidin-2-yl)amino)methyl)piperidin-1-yl)methanone]
–	4	–	790	49	Cc1ccc(F)c(C(=O)N2CCC[C@@H](C)[C@H]2CNc2ccc(C(F)(F)F)cn2)c1-c1ncccn1 [Example A354, (6-fluoro-3-methyl-2-(pyrimidin-2-yl)phenyl)((2S,3R)-3-methyl-2-(((5-(trifluoromethyl)pyridin-2-yl)amino)methyl)piperidin-1-yl)methanone]
–	2	–	3900	86	Cc1ccc(C(=O)N2CCC[C@@H](C)[C@H]2CNc2ccc(C(F)(F)F)cn2)c(-n2nccn2)c1F [Example A356, (3-Fluoro-4-methyl-2-(2H-1,2,3-triazol-2-yl)phenyl)((2S,3R)-3-methyl-2-(((5-(trifluoromethyl)pyridin-2-yl)amino)methyl)piperidin-1-yl)methanone]
–	5	–	> 5000	83	Cc1ccc(C(=O)N2CCC[C@@H](C)[C@H]2CNc2ncc(C(F)(F)F)cn2)c(-n2nccn2)c1F [Example A357, (3-fluoro-4-methyl-2-(2H-1,2,3-triazol-2-yl)phenyl)((2S,3R)-3-methyl-2-(((5-(trifluoromethyl)pyrimidin-2-yl)amino)methyl)piperidin-1-yl)methanone]
–	6	–	> 5000	52	Cc1ccc(C(=O)N2CCC[C@@H](C)[C@H]2CNc2ncc(C(F)(F)F)cn2)c(-c2ncccn2)c1F [Example A359, (3-fluoro-4-methyl-2-(pyrimidin-2-yl)phenyl)((2S,3R)-3-methyl-2-(((5-(trifluoromethyl)pyrimidin-2-yl)amino)methyl)piperidin-1-yl)methanone]
–	4	–	3000	60	Cc1cc(C(=O)N2CCC[C@@H](C)[C@H]2CNc2ncc(C(F)(F)F)cn2)c(-n2nccn2)cc1F [Example A369, (4-fluoro-5-methyl-2-(2H-1,2,3-triazol-2-yl)phenyl)((2S,3R)-3-methyl-2-(((5-(trifluoromethyl)pyrimidin-2-yl)amino)methyl)piperidin-1-yl)methanone]
–	1	–	490	83	Cc1cc(F)c(-n2nccn2)c(C(=O)N2CCC[C@@H](C)[C@H]2CNc2ccc(C(F)(F)F)cn2)c1 [Example A372, (3-Fluoro-5-methyl-2-(2H-1,2,3-triazol-2-yl)phenyl)((2S,3R)-3-methyl-2-(((5-(trifluoromethyl)pyridin-2-yl)amino)methyl)piperidin-1-yl)methanone]
–	1	–	1900	60	Cc1cc(F)c(-n2nccn2)c(C(=O)N2CCC[C@@H](C)[C@H]2CNc2ncc(C(F)(F)F)cn2)c1 [Example A373, (3-fluoro-5-methyl-2-(2H-1,2,3-triazol-2-yl)phenyl)((2S,3R)-3-methyl-2-(((5-(trifluoromethyl)pyrimidin-2-yl)amino)methyl)piperidin-1-yl)methanone]
–	8	–	170	48	Cc1cc(F)c(-c2ncccn2)c(C(=O)N2CCC[C@@H](C)[C@H]2CNc2ncc(C(F)(F)F)cn2)c1 [Example A375, (3-fluoro-5-methyl-2-(pyrimidin-2-yl)phenyl)((2S,3R)-3-methyl-2-(((5-(trifluoromethyl)pyrimidin-2-yl)amino)methyl)piperidin-1-yl)methanone]
